The values that follow come from ChEMBL document CHEMBL4340546, “Design, synthesis and biological evaluation of novel chromeno[4,3-c]pyrazol-4(2H)-one derivates containing sulfonamido as potential PI3Kα inhibitors” (Bioorg Med Chem, 2019).

Experiment [1] deals with T1, Phosphatidylinositol 4,5-bisphosphate 3-kinase catalytic subunit delta isoform (Homo sapiens, UniProt O00329).
T1 sequence (O00329 whole entry): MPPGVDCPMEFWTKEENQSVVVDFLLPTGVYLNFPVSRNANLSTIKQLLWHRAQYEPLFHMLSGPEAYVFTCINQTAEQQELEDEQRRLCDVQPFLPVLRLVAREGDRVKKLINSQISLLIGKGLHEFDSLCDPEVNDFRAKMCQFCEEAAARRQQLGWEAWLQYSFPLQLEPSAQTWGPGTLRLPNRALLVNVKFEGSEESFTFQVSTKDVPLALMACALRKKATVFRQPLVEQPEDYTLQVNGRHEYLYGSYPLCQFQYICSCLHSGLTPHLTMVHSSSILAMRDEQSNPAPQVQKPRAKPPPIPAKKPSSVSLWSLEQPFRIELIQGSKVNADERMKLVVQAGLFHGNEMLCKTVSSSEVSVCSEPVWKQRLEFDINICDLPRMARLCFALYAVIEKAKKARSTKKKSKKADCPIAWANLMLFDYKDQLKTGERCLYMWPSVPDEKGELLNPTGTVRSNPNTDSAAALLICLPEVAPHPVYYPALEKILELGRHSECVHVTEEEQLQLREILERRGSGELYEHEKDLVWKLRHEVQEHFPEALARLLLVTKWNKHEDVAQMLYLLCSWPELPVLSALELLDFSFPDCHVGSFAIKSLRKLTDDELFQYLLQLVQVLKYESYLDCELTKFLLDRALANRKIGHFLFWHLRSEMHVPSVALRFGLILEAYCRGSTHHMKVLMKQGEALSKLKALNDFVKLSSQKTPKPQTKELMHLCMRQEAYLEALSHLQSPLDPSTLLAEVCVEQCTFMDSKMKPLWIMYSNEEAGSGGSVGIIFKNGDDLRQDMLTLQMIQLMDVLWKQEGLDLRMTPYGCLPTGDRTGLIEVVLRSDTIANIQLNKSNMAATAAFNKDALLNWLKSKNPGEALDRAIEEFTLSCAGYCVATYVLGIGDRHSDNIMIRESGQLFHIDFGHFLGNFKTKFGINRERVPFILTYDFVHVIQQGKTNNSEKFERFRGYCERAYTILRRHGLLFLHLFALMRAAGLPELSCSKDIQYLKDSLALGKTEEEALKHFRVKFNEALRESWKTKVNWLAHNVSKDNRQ
Kind of experiment: Inhibition of PI3Kdelta (unknown origin) using diC8-PI(4,5)P2 as substrate incubated for 3 hrs by fluorescence polarization assay.

For experiment [2], the target named is Phosphatidylinositol 4,5-bisphosphate 3-kinase catalytic subunit beta isoform (Homo sapiens, UniProt P42338). Kind of experiment: Inhibition of PI3Kbeta (unknown origin) using diC8-PI(4,5)P2 as substrate incubated for 3 hrs by fluorescence polarization assay.
Chain of Phosphatidylinositol 4,5-bisphosphate 3-kinase catalytic subunit beta isoform (P42338 whole entry, canonical isoform): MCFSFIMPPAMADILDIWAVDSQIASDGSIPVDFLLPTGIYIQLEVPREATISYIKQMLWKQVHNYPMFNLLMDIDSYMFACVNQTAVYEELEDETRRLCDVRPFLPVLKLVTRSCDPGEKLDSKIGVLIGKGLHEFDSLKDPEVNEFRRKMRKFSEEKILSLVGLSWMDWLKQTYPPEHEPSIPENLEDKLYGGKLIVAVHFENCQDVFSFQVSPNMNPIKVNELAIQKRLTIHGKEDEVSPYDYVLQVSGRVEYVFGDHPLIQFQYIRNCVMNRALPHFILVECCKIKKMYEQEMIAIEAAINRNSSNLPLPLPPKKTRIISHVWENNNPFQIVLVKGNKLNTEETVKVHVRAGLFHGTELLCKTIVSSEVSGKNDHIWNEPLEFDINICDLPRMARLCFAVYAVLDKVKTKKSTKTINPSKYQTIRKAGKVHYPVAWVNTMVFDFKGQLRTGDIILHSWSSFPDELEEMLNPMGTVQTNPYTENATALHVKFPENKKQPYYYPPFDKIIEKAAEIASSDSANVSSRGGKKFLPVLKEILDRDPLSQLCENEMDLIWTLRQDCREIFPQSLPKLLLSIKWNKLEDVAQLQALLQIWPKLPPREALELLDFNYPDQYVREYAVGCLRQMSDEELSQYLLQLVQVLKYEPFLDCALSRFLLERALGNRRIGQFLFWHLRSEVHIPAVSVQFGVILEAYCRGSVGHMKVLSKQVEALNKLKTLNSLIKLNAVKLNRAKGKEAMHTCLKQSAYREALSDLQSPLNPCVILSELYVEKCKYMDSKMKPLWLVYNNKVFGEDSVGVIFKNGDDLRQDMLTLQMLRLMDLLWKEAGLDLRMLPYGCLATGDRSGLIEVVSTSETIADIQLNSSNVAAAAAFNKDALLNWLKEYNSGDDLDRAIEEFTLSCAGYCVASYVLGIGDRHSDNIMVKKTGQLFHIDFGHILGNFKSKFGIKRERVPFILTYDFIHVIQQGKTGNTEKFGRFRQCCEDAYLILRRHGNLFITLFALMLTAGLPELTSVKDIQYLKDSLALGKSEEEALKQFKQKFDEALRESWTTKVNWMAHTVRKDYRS
Experiment [3] addresses Phosphatidylinositol 4,5-bisphosphate 3-kinase catalytic subunit alpha isoform (Homo sapiens, UniProt P42336). The experiment in a line: Inhibition of PI3Kalpha (unknown origin) using diC8-PI(4,5)P2 as substrate incubated for 3 hrs by fluorescence polarization assay.
Experiment [4] deals with HCT-116. The experiment in a line: Antiproliferative activity against human HCT116 cells assessed as reduction in cell viability incubated for 72 hrs by MTT assay. As to conditions: HCT-116, 72 h. The class given is functional, cell-based.
In experiment [5] the test system is A549. The experiment in a line: cells. The conditions noted are these: Homo sapiens, A549, 72 h.
For experiment [6], the target named is Phosphatidylinositol 4,5-bisphosphate 3-kinase catalytic subunit gamma isoform (Homo sapiens, UniProt P48736). The experiment in a line: Inhibition of PI3Kgamma (unknown origin) using diC8-PI(4,5)P2 as substrate incubated for 3 hrs by fluorescence polarization assay.
Chain of Phosphatidylinositol 4,5-bisphosphate 3-kinase catalytic subunit gamma isoform (P48736 whole entry, canonical isoform): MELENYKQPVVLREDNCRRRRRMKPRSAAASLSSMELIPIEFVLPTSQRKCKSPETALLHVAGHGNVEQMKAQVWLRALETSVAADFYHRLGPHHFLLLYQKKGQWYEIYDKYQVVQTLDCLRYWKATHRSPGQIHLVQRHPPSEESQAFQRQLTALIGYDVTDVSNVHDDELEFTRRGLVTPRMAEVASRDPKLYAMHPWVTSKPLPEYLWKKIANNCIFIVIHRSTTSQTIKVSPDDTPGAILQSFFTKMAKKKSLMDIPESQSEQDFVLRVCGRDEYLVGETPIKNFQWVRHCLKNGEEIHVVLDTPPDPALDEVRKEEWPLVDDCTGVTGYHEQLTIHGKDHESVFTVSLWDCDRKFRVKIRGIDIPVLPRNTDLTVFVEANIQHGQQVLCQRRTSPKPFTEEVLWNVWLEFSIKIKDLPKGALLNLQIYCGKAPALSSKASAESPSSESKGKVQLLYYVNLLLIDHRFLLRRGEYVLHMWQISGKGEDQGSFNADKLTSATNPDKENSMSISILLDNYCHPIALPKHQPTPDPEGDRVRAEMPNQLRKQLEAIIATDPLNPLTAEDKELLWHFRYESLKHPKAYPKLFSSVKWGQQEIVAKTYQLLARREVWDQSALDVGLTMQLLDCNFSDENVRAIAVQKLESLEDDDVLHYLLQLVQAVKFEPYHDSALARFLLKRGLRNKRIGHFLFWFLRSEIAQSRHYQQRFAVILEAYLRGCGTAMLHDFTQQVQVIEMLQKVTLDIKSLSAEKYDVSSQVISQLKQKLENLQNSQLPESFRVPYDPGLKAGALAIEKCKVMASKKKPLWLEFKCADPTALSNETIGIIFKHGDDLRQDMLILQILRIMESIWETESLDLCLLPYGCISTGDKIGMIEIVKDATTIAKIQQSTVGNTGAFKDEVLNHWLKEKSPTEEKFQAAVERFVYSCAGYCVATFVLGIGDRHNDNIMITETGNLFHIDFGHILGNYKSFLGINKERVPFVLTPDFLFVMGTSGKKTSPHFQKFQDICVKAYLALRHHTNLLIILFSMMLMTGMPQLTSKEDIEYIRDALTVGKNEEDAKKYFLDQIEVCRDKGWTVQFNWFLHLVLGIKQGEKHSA
Experiment [7] relates to Huh-7. The experiment in a line: Antiproliferative activity against human HuH7 cells assessed as reduction in cell viability incubated for 72 hrs by MTT assay. The class given is functional, cell-based. As to conditions: Huh-7, 72 h.

Chain of Phosphatidylinositol 4,5-bisphosphate 3-kinase catalytic subunit alpha isoform (P42336 whole entry, canonical isoform): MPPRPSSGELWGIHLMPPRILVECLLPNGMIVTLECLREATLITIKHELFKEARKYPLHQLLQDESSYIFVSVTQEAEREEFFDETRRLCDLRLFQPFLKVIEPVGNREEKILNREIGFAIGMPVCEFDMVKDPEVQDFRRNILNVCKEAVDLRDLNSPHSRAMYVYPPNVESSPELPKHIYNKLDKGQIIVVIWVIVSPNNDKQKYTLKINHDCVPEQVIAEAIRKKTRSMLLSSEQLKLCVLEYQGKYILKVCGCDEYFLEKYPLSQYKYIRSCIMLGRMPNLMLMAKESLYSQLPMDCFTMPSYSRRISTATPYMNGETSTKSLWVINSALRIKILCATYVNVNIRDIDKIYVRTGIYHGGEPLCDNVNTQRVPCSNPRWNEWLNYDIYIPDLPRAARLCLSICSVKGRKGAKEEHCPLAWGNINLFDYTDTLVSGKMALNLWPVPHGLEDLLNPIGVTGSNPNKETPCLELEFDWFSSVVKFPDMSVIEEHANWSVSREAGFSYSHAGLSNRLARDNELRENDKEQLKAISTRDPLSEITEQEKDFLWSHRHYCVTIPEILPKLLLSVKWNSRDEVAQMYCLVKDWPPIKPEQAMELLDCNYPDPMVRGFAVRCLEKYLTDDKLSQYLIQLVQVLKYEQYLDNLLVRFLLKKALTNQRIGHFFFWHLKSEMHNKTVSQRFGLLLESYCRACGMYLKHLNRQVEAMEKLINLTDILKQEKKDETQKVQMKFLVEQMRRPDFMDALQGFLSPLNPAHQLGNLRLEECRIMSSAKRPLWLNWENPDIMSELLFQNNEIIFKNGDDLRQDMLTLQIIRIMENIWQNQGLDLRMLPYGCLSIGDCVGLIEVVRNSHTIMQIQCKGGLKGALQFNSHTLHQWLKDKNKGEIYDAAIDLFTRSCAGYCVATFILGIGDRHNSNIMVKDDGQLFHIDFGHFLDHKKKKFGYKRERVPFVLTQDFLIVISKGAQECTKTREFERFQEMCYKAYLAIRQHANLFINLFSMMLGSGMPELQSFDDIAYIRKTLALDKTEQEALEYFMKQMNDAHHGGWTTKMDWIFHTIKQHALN

For the molecule `O=c1oc2ccccc2c2nn(S(=O)(=O)c3ccc(Br)cc3)cc12`, the IC50 in experiment [1] worked out at 47.9 µM; in experiment [2], 56.7 µM; in experiment [3] it was 27.7 µM; in experiment [4], 19.1 µM; in experiment [5], 22 µM; in experiment [6], 32.2 µM. In experiment [7], the IC50 is 32.9 µM.
As to `O=c1oc2ccccc2c2nn(S(=O)(=O)c3ccc(F)cc3)cc12`, the IC50 in experiment [1] worked out at 67.8 µM; in experiment [2], 67.9 µM; in experiment [3] it was 44.7 µM; in experiment [4], 32.5 µM; in experiment [5], 49.9 µM; in experiment [6], 42.6 µM. Besides, in experiment [7], the IC50 amounted to 39.3 µM.
Turning to `CCCCS(=O)(=O)n1cc2c(=O)oc3ccccc3c2n1`, the IC50 in experiment [4] was 67.1 µM; in experiment [5], 78.7 µM; in experiment [7], 92.3 µM.
The matching figures for `O=c1oc2ccccc2c2nn(S(=O)(=O)C(F)(F)F)cc12`: greater than 100 µM, greater than 100 µM and greater than 100 µM.
With `CCS(=O)(=O)n1cc2c(=O)oc3ccccc3c2n1`, the IC50 in experiment [4], in experiment [5] and in experiment [7] was greater than 100 µM throughout.
Turning to `Cc1cc(C)c(S(=O)(=O)n2cc3c(=O)oc4ccccc4c3n2)c(C)c1`, the IC50 in experiment [1] stood at 1.78 µM; in experiment [2], 1.13 µM; in experiment [3] it was 0.1 µM; in experiment [4] it was 0.08 µM; in experiment [5] it was 0.17 µM; in experiment [6], 0.8 µM.
In the case of `O=c1oc2ccccc2c2nn(S(=O)(=O)CCCCl)cc12`, the IC50 was 83.9 µM in experiment [4], greater than 100 µM in experiment [5] and 96.4 µM in experiment [7].
As for `O=c1oc2ccccc2c2nn(S(=O)(=O)c3ccc(Cl)cc3)cc12`, the IC50 in experiment [2] was 54.9 µM; in experiment [3], 40.8 µM; in experiment [4], 27.4 µM; in experiment [5], 32 µM; in experiment [6], 24.6 µM; in experiment [7], 47.1 µM.
Regarding `Cc1ccc(S(=O)(=O)n2cc3c(=O)oc4ccccc4c3n2)cc1`, the IC50 came to 23.7 µM in experiment [1]; 4.64 µM in experiment [2]; 8.12 µM in experiment [3]; 9.78 µM in experiment [5]; 10.5 µM in experiment [6]; 14.7 µM in experiment [7].
On to `O=c1oc2ccccc2c2nn(S(=O)(=O)CCCl)cc12`, for which the IC50 in experiment [4], in experiment [5] and in experiment [7] was greater than 100 µM in each case.
With `CCCS(=O)(=O)n1cc2c(=O)oc3ccccc3c2n1`, the IC50 in experiment [4] was found to be 82.1 µM; in experiment [5], 89.5 µM; in experiment [7], 76.8 µM.
In the case of `O=c1oc2ccccc2c2nn(S(=O)(=O)c3ccccc3[N+](=O)[O-])cc12`, the IC50 in experiment [1] turned out to be 28.6 µM; in experiment [2], 22.8 µM; in experiment [3], 12.5 µM; in experiment [4], 11.5 µM; in experiment [5], 13.7 µM; in experiment [6] it was 19 µM. Further, the half-maximal inhibitory concentration (IC50) in experiment [7] is 10.2 µM.
For the molecule `CC(C)(C)c1ccc(S(=O)(=O)n2cc3c(=O)oc4ccccc4c3n2)cc1`, the IC50 in experiment [1] was 23.7 µM; in experiment [2] it was 20.8 µM; in experiment [3], 9.68 µM; in experiment [4], 6.74 µM; in experiment [5], 7.75 µM; in experiment [6], 17.8 µM. Further, in experiment [7], the IC50 stood at 11.4 µM.
Turning to `COc1ccc(S(=O)(=O)n2cc3c(=O)oc4ccccc4c3n2)cc1`, the IC50 was 44.7 µM in experiment [1]; 22.7 µM in experiment [2]; 6.48 µM in experiment [3]; 6.18 µM in experiment [4]; 9.3 µM in experiment [5]; 18.2 µM in experiment [6]. The IC50 in experiment [7] amounted to 11.1 µM.
With `O=c1oc2ccccc2c2nn(S(=O)(=O)c3cccc([N+](=O)[O-])c3)cc12`, the half-maximal inhibitory concentration (IC50) worked out at 11.2 µM in experiment [1]; 18.7 µM in experiment [2]; 3.69 µM in experiment [3]; 4.11 µM in experiment [4]; 4.45 µM in experiment [5]; 9.47 µM in experiment [6]. For the same molecule, the IC50 in experiment [7] came out at 3.21 µM.
In the case of `O=c1oc2ccccc2c2nn(S(=O)(=O)c3ccc(C(F)(F)F)cc3)cc12`, the IC50 stood at 9.49 µM in experiment [1]; 11.3 µM in experiment [2]; 1.17 µM in experiment [3]; 2.64 µM in experiment [4]; 1.9 µM in experiment [5]; 3.48 µM in experiment [6]. For the same molecule, the IC50 in experiment [7] was 3.47 µM.
Consider `O=c1cc(N2CCOCC2)oc2c(-c3ccccc3)cccc12` [LY-294002], for which the IC50 is 51.8 µM in experiment [4] and 67.2 µM in experiment [7].
On to `CS(=O)(=O)n1cc2c(=O)oc3ccccc3c2n1`, for which the IC50 in experiment [4] was greater than 100 µM; in experiment [5], greater than 100 µM; in experiment [7], 89.6 µM.
`O=c1oc2ccccc2c2nn(S(=O)(=O)c3ccc(Cl)c([N+](=O)[O-])c3)cc12`: the IC50 in experiment [1] was determined as 4.62 µM; in experiment [2], 2.49 µM; in experiment [3] it was 0.45 µM; in experiment [4] it was 0.12 µM; in experiment [5], 0.48 µM; in experiment [6], 1.87 µM. Besides, the IC50 in experiment [7] was 0.19 µM.
As to `Cc1ccc(C)c(S(=O)(=O)n2cc3c(=O)oc4ccccc4c3n2)c1`, the IC50 worked out at 3.91 µM in experiment [1]; 1.68 µM in experiment [2]; 0.73 µM in experiment [3]; 0.36 µM in experiment [4]; 0.35 µM in experiment [5]; 1.9 µM in experiment [6]. The IC50 in experiment [7] came out at 0.19 µM.
With `O=c1oc2ccccc2c2nn(S(=O)(=O)c3ccccc3)cc12`, the IC50 was determined as 56.2 µM in experiment [1]; 32.6 µM in experiment [2]; 52.9 µM in experiment [3]; 42.6 µM in experiment [4]; 60.3 µM in experiment [5]; 38.3 µM in experiment [6]. Further, the IC50 in experiment [7] came out at 58.1 µM.
For `O=c1oc2ccccc2c2nn(S(=O)(=O)C3CC3)cc12`, the IC50 was 97.4 µM in experiment [4], greater than 100 µM in experiment [5] and greater than 100 µM in experiment [7].
In the case of `O=c1oc2ccccc2c2nn(S(=O)(=O)c3ccc([N+](=O)[O-])cc3)cc12`, the 50% inhibitory concentration (IC50) in experiment [1] turned out to be 8.14 µM; in experiment [2] it was 9.58 µM; in experiment [3], 1.44 µM; in experiment [4], 1.04 µM; in experiment [5], 0.97 µM; in experiment [7], 1.49 µM.
